13 compounds from PubChem BioAssay (NCI) can be followed below.

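1) Cells in 96-well plates. 2) Compound, 48 h, 5 concentrations. 3) Linear interpolation between surrounding doses. 4) Unreached endpoint = highest concentration. TGI is the concentration that stops growth completely.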

Common to all, as to experiment: NCI-60 cell line screen, 48 h
The test system of test [1] is ACHN renal.
The subject of test [2] is HOP-92 NSCLC.
The subject of test [3] is HT29 colon.
Test [4] deals with K-562 leukemia.
Test [5] has as its system MCF7 breast.
The test system of test [6] is MDA-MB-435.
The subject of test [7] is NCI/ADR-RES ovarian.
For test [8], the system named is OVCAR-3 ovarian.
Test [9] has as its system SF-295 CNS.
For test [10], the system named is SNB-19 CNS.
In test [11] the test system is T-47D breast.
The test system of test [12] is UACC-257 melanoma.
For test [13], the system named is CCRF-CEM leukemia.
The subject of test [14] is SR leukemia.

As to `COC(=O)C1CCC(=O)N1CN(C(C)=O)c1cccc(O)c1` (centres undefined), the TGI in test [1], in [2], in test [3], in test [4], in test [5] and in [6] was over 100 µM in each case. In addition, the TGI in test [7], in test [8], in test [9], in test [10], in test [11] and in test [12] was over 100 µM in each case.

On to `COC(=O)[C@@]12OC[C@]34C([C@@H](O)C1O)[C@@]1(C)CC(=O)C(OC(=O)CC(C)C(F)(F)F)=C(C)C1C[C@H]3OC(=O)[C@H](O)[C@H]42` (some centres undefined), for which the TGI in test [1] is over 62.5 µM; in test [13], over 62.5 µM; in [2] it was 23.1 µM; in test [3], over 62.5 µM; in test [4], over 62.5 µM; in [9], 42.5 µM. The values for the TGI in [10], in test [14] and in test [12] were 22.4 µM, 19.9 µM and 35.3 µM, respectively.

`C1CSCCSCCCS[C@@H]2CCCCC2SC1` (some centres undefined): the TGI was over 100 µM in [1]; 88.7 µM in test [13]; over 100 µM in test [2]; over 100 µM in test [3]; 96.1 µM in test [4]; over 100 µM in test [8]. The TGI in test [9], in test [10] and in test [12] was over 100 µM each time.

For the compound `O=S(=O)(/N=C(\NO)Nc1ccc(Cl)cc1)c1cc(C(F)(F)F)cc(C(F)(F)F)c1`, the TGI was 31.3 µM in [1]; over 100 µM in test [13]; 30.3 µM in [2]; 34.3 µM in test [3]; 90.4 µM in [4]; 37.6 µM in [6]. The TGI in test [7] was found to be 58.1 µM; in test [8], 34.8 µM; in test [9], 36.4 µM; in test [10] it was 31.5 µM; in test [11], 67.2 µM; in test [12] it was 42.4 µM.

Turning to `N#Cc1sc2nc3ccccc3n2c1N`, the TGI in test [1], in [13], in [2], in [3], in [5] and in test [6] was over 100 µM throughout. Also, the TGI in test [7], in test [8], in [9], in test [10], in test [11] and in test [12] was over 100 µM throughout.

As for `COC(=O)c1cc(S(=O)(=O)NC2=NCC(C)NN2)c(S)cc1Cl` (centres undefined), the TGI in test [1], in [13], in test [3], in test [4], in test [5] and in [6] was over 100 µM each time. Also, the TGI in test [7], in [8], in test [9], in test [10], in test [14] and in test [12] was over 100 µM throughout.

With `CC1(C)O[C@@H]2[C@@H](COC(C)(C)O[C@H]2C2SCCCS2)O1`, the TGI in [1], in [2], in test [3], in test [4], in test [5] and in test [6] was over 100 µM in each case. Moreover, the TGI in test [7], in test [8], in test [9], in test [10] and in [11] was over 100 µM each time.

Turning to `O=C(NCCC1CNc2ccccc21)OCc1ccccc1` (centres undefined), the TGI in test [1], in test [13], in [2], in test [3], in [4] and in test [5] was over 100 µM throughout. In addition, the TGI in test [6], in test [7], in test [8], in test [9], in test [10] and in [14] was over 100 µM in each case. In test [12], this compound showed a TGI of over 100 µM.

As to `Cc1cc2nc3c(C#N)c(-c4ccccc4)/c(=C\Nc4ccc(F)cc4)c(=O)n3c2cc1C`, the TGI in [1], in test [13], in [5], in [6], in test [7] and in [8] was over 100 µM each time. Further, the TGI in test [9] was over 100 µM; in test [10], 80.9 µM; in test [11] it was over 100 µM; in test [12], over 100 µM.

Take `COc1cc(C2c3cc4c(cc3OC(NN)C2C)OCO4)cc(OC)c1O` (centres undefined): the TGI in test [2] is over 100 µM; in [4] it was 12.6 µM; in test [5], over 100 µM; in test [7] it was 94 µM; in test [8], over 100 µM; in [9], 14.7 µM. Moreover, the TGI in [10] is over 100 µM; in test [11], 31 µM; in test [12], 93 µM.

Consider `O=C1c2ccccc2N2OC3(N4CCOCC4)CCCC3C12c1ccccc1` (centres undefined), for which the TGI in test [1], in test [13], in [2], in test [3], in test [4] and in [9] was over 100 µM in each case. Moreover, the TGI in test [10], in test [14] and in [12] was over 100 µM throughout.

Take `Cc1[nH]n(-c2nc3c(c(=O)[nH]2)CCCC3)c(=O)c1CCO`: the TGI in test [1], in [13], in [3], in test [4], in test [5] and in [6] was over 100 µM each time. For the same compound, the TGI in [7], in [8], in test [9], in test [10], in test [11] and in test [12] was over 100 µM in each case.

Turning to `CCOC(=O)C1(C/C=C\CBr)CCCC1=O` (centres undefined), the TGI in [1] was 56.5 µM; in test [3], over 100 µM; in [5], 55.2 µM; in test [6], 57.2 µM; in [7], 57.2 µM; in test [9], over 100 µM. For the same compound, the TGI was over 100 µM in [10], 94.3 µM in [11] and over 100 µM in test [12].
